Tested on: mouse model of hepatic steatosis
Test: HFD-induced hepatic steatosis (NAFLD) mouse model treated with UCB9608
Type: in vivo, mice
Method: Male mice were used for NAFLD induction via feeding on HFD. ROSA26-LSL-spCas9 mice were injected with AAV-U6-Cu/7 gRNAs-TBG-Cre and AAV-U6-Fbxw8 gRNAs-TBG-Cre virus pools at a dose of 3×10^11 genome copies/mouse and fed in HFD for 12 weeks and livers were harvested after 6 hours fasting. To study PI4KB in NAFLD progression, male ROSA26-LSL-spCas9 mice were fed in HFD for 12 weeks to induce fatty liver before induction of hepatocyte specific depletion of PI4KB via intravenous administration of AAV8. After another 8 weeks, mice were dissected to harvest liver after 6 hours fasting. Likewise, male C57BL/6N wild-type mice and liver specific Atgl knockout mice (AtglLKO) were challenged with HFD for 12 weeks to induce fatty liver prior to administration of UCB9608 mixed in HFD (5 mg/kg) for another 8 weeks. Then the mice were dissected to harvest tissues and sample blood after 6 hours fasting Atgl floxed mice (The Jackson Lab strain) were crossed with Albumin-Cre (The Jackson Lab strain) and Adip-CreERT2 strains to obtain Alb-Atgfl^fl/fl and AdipcreERT2-Atgl^fl/fl mice (Sitnick,M.T. et al, Diabetes 62, (2013)), which deplete ATGL protein in the liver and the adipose depots (induced after tamoxifen gavage), respectively. […]
Adipose depots, liver pieces, differentiated iBAs, HepG2, HEK293T and HEK293-AAV cell types were homogenized in RIPA buffer (50 mM Tris-HCl pH 7.4, 150 mM NaCl, 2 mM EDTA, 1.0% Triton X100, 0.5% sodium deoxycholate) with protease inhibitors (Complete, Roche) and phosphatase inhibitors (Halt phosphatase inhibitor cocktail, ThermoFisher). […] The concentration of WCE was determined by DC Protein Assay (Bio-Rad). […]
Plasma collected from mice under different conditions was used to determine levels of lipolysis and liver injury. FFA levels were measured via NEFA assay kit (Wako NEFA kit). TG levels were determined via TG assay kit (Roche Trig/GB reagent). […] The absorbance was monitored using Synergy Gen5 Platereader.
Weight of liver pieces (50-100 mg) was recorded before homogenization by 1 mL isopropanol per 50 mg tissue. […]

## COc1ccc(NC(=O)N2CCN(c3nc(N)nc4c3cnn4C)[C@@H](C)C2)c(C)c1 [UCB9608]
HFD 12 weeks, then UCB9608 in HFD (5 mg/kg) 8 weeks, requires ATGL in the liver
  hepatic steatosis (hepatic TG levels): substantially attenuated
UCB9608- vs DMSO-treated HFD mice
  ATGL protein levels in the iBAT, gWAT and liver: significantly greater
wild-type mice, HFD 12 weeks, then UCB9608 in HFD (5 mg/kg) 8 weeks, vs DMSO
  plasma FFA levels: significantly increased
